Source: patent US8835472B2, “Compounds, pharmaceutical compositions and uses thereof” (Boehringer Ingelheim International GmbH, priority 2010, dated 2014)

Molecular target: human ACC2 (Homo sapiens (Human), UniProt O00763)
Test: ACC2 assay, spectrophotometric 384 well assay (NADH-linked, coupled lactate dehydrogenase/pyruvate kinase reaction)
Format: biochemical
Settings: hACC2 construct lacking the 128 N-terminal amino acids; 25° C., 340 nm over 15 minutes
Experimental: Spectrophotometric 384 Well Assay
Malonyl CoA formation by acetyl CoA carboxylases is stoichometrically linked to the consumption of ATP. ACC2 activity is measured in a NADH-linked kinetic method measuring ADP generated during the ACC reaction using a coupled lactate dehydrogenase/pyruvate kinase reaction.
For biological testing, a human ACC2 construct which lacks the 128 amino acids at the N-terminus for increased solubility (nt 385-6966 in Genbank entry AJ575592) is cloned. The protein is then expressed in insect cells using a baculoviral expression system. Protein purification is performed by anion exchange.
All compounds are dissolved in dimethyl sulfoxide (DMSO) to a concentration of 10 mM.
Assay reactions are then carried out in 384-well plates, with hACC2 in an appropriate dilution and at final assay concentrations (f.c.) of 100 mM Tris (pH 7.5), 10 mM trisodium citrate, 25 mM KHCO3, 10 mM MgCl2, 0.5 mg/mL BSA, 3.75 mM reduced L-glutathione, 15 U/mL lactate dehydrogenase, 0.5 mM phosphoenolpyruvate, 15 U/mL pyruvate kinase, compounds at different concentrations at final DMSO concentrations of 1%.
The enzymatic reaction is then started by addition of a mixture of NADH, acetyl Coenzyme A (both 200 μM f.c.) and ATP (500 uM f.c.). The decrease of the optical density (slope S) is then determined at 25° C. at a wavelength of 340 nm over 15 minutes in a spectrophotometric reader.
Each assay microtiter plate contains wells with vehicle instead of compound as controls for the non-inhibited enzyme (100% CTL; ‘HIGH’) and wells without acetyl-CoA as controls for non-specific NADH degradation (0% CTL; ‘LOW’).
The slope S is used for calculation of % CTL=(S(compound)−S(‘LOW’))/(S(‘HIGH’)−S(‘LOW’))*100. Compounds will give values between 100% CTL (no inhibition) and 0% CTL (complete inhibition).
For IC50 value determination, the sample slope in the presence of the test compound after subtraction of the low controls (S(compound)−S(‘LOW’)) are used. An IC50 value is derived from the compound slopes at different dosages after subtraction of the low controls (S(compound)−S(‘LOW’)) by non-linear regression curve fitting (equation y=(A+((B−A)/(1+((C/x)^D))))).

Sequence of human ACC2 (O00763 129-2458): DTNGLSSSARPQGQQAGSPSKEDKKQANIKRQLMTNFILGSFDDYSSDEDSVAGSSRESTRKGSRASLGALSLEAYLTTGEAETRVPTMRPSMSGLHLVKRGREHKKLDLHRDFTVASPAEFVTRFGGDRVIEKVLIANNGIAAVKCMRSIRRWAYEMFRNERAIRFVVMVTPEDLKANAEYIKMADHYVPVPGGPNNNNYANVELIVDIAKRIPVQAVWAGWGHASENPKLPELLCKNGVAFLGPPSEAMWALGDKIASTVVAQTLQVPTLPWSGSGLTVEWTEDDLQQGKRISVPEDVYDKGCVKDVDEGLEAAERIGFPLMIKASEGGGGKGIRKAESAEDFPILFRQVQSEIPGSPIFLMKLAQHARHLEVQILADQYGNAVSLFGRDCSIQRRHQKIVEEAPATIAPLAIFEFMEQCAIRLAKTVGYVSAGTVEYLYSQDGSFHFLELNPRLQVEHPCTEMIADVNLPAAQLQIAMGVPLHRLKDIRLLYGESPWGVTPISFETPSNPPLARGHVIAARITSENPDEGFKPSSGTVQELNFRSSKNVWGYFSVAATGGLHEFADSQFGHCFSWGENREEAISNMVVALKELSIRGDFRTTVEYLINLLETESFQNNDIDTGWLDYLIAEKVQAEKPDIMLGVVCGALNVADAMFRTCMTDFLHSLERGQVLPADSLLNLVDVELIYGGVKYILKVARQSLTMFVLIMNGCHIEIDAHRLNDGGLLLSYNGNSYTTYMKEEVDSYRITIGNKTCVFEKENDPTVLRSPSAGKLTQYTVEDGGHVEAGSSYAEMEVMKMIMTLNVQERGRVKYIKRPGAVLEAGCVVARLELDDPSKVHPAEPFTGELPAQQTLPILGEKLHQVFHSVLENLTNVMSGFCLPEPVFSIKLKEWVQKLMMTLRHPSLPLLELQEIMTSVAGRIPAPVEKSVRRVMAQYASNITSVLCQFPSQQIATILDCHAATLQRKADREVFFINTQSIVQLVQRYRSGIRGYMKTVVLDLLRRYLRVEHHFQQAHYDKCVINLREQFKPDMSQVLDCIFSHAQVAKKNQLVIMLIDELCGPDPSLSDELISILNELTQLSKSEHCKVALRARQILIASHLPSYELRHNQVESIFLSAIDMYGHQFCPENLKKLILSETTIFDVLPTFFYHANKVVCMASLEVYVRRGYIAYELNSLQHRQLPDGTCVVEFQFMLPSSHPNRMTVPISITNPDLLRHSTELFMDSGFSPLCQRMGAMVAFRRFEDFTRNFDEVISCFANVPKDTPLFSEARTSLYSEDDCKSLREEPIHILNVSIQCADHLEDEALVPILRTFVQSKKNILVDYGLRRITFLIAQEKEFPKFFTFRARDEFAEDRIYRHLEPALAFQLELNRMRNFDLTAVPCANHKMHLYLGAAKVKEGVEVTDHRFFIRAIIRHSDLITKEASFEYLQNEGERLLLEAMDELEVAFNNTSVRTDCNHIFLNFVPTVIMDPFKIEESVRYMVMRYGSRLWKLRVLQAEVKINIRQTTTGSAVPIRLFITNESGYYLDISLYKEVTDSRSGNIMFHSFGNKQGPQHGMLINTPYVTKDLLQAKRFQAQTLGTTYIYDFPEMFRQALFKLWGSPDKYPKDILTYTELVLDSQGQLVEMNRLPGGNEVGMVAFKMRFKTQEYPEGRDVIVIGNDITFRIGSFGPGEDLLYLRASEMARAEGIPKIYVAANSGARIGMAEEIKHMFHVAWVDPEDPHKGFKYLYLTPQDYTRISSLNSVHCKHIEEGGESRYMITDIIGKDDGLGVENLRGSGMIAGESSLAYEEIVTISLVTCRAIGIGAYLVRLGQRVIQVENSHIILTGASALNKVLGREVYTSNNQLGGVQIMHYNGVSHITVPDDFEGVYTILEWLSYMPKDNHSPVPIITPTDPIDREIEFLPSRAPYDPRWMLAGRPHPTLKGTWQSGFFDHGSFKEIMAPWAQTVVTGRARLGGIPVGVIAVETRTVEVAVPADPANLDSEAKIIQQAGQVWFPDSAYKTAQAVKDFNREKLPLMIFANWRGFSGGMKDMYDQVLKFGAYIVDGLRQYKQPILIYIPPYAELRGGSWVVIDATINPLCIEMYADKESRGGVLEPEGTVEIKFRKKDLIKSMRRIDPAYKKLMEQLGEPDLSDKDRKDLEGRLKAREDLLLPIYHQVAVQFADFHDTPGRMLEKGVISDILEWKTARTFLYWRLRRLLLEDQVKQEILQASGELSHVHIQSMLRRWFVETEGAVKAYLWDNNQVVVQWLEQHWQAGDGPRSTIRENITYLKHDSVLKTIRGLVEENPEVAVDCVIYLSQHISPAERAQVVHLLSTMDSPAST

Compound	IC50 [µM]
CCCCOc1cc(C#Cc2ccc(CC(C)NC(C)=O)cc2)ccn1 (stereo not shown) [Example 2.96]	0.13
CC(=O)NC(C)Cc1ccc(C#Cc2ccnc(OC(C)C)c2)cc1 (stereo not shown) [Example 2.97]	0.14
CC(=O)NC(C)Cc1ccc(C#Cc2ccnc(Oc3ccccc3)c2)cc1 (stereo not shown) [Example 2.98]	0.15
CC(=O)NC(C)Cc1ccc(C#Cc2ncc(Cl)cn2)cc1 (stereo not shown) [Example 2.99]	7.4
CC(=O)NC(C)Cc1ccc(C#Cc2ccc(OC3CC3)cc2)cc1 (stereo not shown) [Example 2.100]	0.12
CSc1ccc(C#Cc2ccc(C(C)NC(C)=O)cc2)cc1 (stereo not shown) [Example 2.101]	0.35
CCOc1cc(C#Cc2ccc(C(C)NC(C)=O)cc2)ccn1 (stereo not shown) [Example 2.102]	0.58
CC(=O)NC(C)c1ccc(C#Cc2cccc(OCc3ccccc3)c2)cc1 (stereo not shown) [Example 2.103]	0.5
COc1ccc(C#Cc2ccc(C(C)NC(C)=O)cc2)cc1 (stereo not shown) [Example 2.104]	1.5
CC(=O)NC(C)c1ccc(C#Cc2cnn(Cc3ccccc3)c2)cc1 (stereo not shown) [Example 2.105]	0.93
CC(=O)NC(C)Cc1ccc(C#Cc2c(C)noc2C)cc1 (stereo not shown) [Example 2.106]	8.2
CC(=O)NC(C)Cc1ccc(C#Cc2cnn(C)c2)cc1 (stereo not shown) [Example 2.107]	4.9
CC(=O)NC(C)Cc1ccc(C#Cc2cnn(Cc3ccccc3)c2)cc1 (stereo not shown) [Example 2.108]	0.3
COCc1ccc(C#Cc2ccc(CC(C)NC(C)=O)cc2)cc1 (stereo not shown) [Example 2.109]	0.79
CC(=O)NC(C)Cc1ccc(C#Cc2ccc(C)cc2Cl)cc1 (stereo not shown) [Example 3.2]	0.27
COc1cc(C#Cc2ccc(CC(C)NC(C)=O)cc2)ccc1Cl (stereo not shown) [Example 3.3]	1.3
COc1c(F)cc(C#Cc2ccc(CC(C)NC(C)=O)cc2)cc1F (stereo not shown) [Example 3.4]	0.56
CC(=O)NC(C)Cc1ccc(C#Cc2ccc3cc[nH]c3c2)cc1 (stereo not shown) [Example 3.5]	0.66
CC(=O)NC(C)Cc1ccc(C#Cc2ccc(Cl)c(C#N)c2)cc1 (stereo not shown) [Example 3.6]	2.3
CC(=O)NC(C)Cc1ccc(C#Cc2cc3c(cc2C#N)OCO3)cc1 (stereo not shown) [Example 3.7]	10.6
COc1ccc(Cl)c(C#Cc2ccc(CC(C)NC(C)=O)cc2)c1 (stereo not shown) [Example 3.8]	0.69
CC(=O)NC(C)Cc1ccc(C#Cc2ccnc(OCc3ccccc3)c2)cc1 (stereo not shown) [Example 3.9]	0.26
COC(=O)c1cc(C#Cc2ccc(CC(C)NC(C)=O)cc2)ccn1 (stereo not shown) [Example 3.10]	4.5
COc1ccc(C#Cc2ccc(CC(C)NC(C)=O)cc2)nc1 (stereo not shown) [Example 3.11]	4.3

Compound	IC50 [µM]
COc1ccc(C#Cc2ccc(CC(C)NC(C)=O)cc2)c(C#N)c1 (stereo not shown) [Example 3.12]	1.2
CC(=O)NC(C)Cc1ccc(C#Cc2cccc(N(C)C)n2)cc1 (stereo not shown) [Example 3.13]	1.7
CC(=O)NC(C)Cc1ccc(C#Cc2ccc3c(c2)OCCO3)cc1 (stereo not shown) [Example 3.14]	0.22
COc1ccc(C#Cc2ccc(CC(C)NC(C)=O)cc2)c(Cl)c1 (stereo not shown) [Example 3.15]	0.35
CC(=O)NC(C)Cc1ccc(C#Cc2nccs2)cc1 (stereo not shown) [Example 3.16]	4.7
COC(=O)c1ccc(C#Cc2ccc(CC(C)NC(C)=O)cc2)o1 (stereo not shown) [Example 3.17]	0.88
CCCC(=O)NC(C)Cc1ccc(C#Cc2ccc(OCC)cc2)cc1 (stereo not shown) [Example 4.1, N-(1-(4-((4-ethoxyphenyl)ethynyl)phenyl)propan-2-yl)butyramide]	0.21
CCOc1ccc(C#Cc2ccc(CC(C)NC(=O)C(C)C)cc2)cc1 (stereo not shown) [Example 4.2]	0.19
C/C=C/C(=O)NC(C)Cc1ccc(C#Cc2ccc(OCC)cc2)cc1 (stereo not shown) [Example 4.3]	0.22
CCOc1ccc(C#Cc2ccc(CC(C)NC(=O)C3CC3)cc2)cc1 (stereo not shown) [Example 4.4]	0.15
CCOc1ccc(C#Cc2ccc(CC(C)NC(=O)C(C)O)cc2)cc1 (stereo not shown) [Example 4.5]	1.5
CCOc1ccc(C#Cc2ccc(CC(C)NC(=O)COC)cc2)cc1 (stereo not shown) [Example 4.6]	0.97
CCOc1ccc(C#Cc2ccc(CC(C)NC(=O)CC)cc2)cc1 (stereo not shown) [Example 4.7]	0.12
C=CC(=O)NC(C)Cc1ccc(C#Cc2ccc(OCC)cc2)cc1 (stereo not shown) [Example 4.8]	0.46
CCOc1ccc(C#Cc2ccc(CC(C)NC(=O)CC#N)cc2)cc1 (stereo not shown) [Example 4.9]	0.4
CCOc1ccc(C#Cc2ccc(CC(C)NC(=O)CN(C)C)cc2)cc1 (stereo not shown) [Example 4.10]	1.1
CCOc1ccc(C#Cc2ccc(CC(C)NC(=O)CCOC)cc2)cc1 (stereo not shown) [Example 4.11]	1.4
CCOc1ccc(C#Cc2ccc(CC(C)NC(=O)C3(O)CC3)cc2)cc1 (stereo not shown) [Example 4.12]	0.56
CCOc1ccc(C#Cc2ccc(CC(C)NC(=O)CCC#N)cc2)cc1 (stereo not shown) [Example 4.13]	0.68
CCOc1ccc(C#Cc2ccc(CC(C)NC(=O)c3cncnc3)cc2)cc1 (stereo not shown) [Example 4.14]	1.2
CCOc1ccc(C#Cc2ccc(CC(C)NC(=O)CS(C)(=O)=O)cc2)cc1 (stereo not shown) [Example 4.15]	0.78
CCOc1ccc(C#Cc2ccc(CC(C)NC(=O)c3cc[nH]n3)cc2)cc1 (stereo not shown) [Example 4.16]	1.6
CCOc1ccc(C#Cc2ccc(CC(C)NC(=O)C=C(C)C)cc2)cc1 (stereo not shown) [Example 4.17]	0.47
CCOc1ccc(C#Cc2ccc(CC(C)NC(=O)CCO)cc2)cc1 (stereo not shown) [Example 4.18]	0.46

Compound	IC50 [µM]
CCOc1ccc(C#Cc2ccc(CC(C)NC(=O)c3ccccc3)cc2)cc1 (stereo not shown) [Example 4.19]	2.8
CCOc1ccc(C#Cc2ccc(CC(C)NC(=O)C3CCC3)cc2)cc1 (stereo not shown) [Example 4.20]	0.18
CCOc1ccc(C#Cc2ccc(CC(C)NC(=O)C3(C)CC3)cc2)cc1 (stereo not shown) [Example 4.21]	0.14
CCOc1ccc(C#Cc2ccc(CC(C)NC(=O)c3ccncc3)cc2)cc1 (stereo not shown) [Example 4.22]	0.93
CCOc1ccc(C#Cc2ccc(CC(C)NC(=O)CC(C)C)cc2)cc1 (stereo not shown) [Example 4.23]	0.31
CCOc1ccc(C#Cc2ccc(CC(C)NC(=O)C(=O)CC)cc2)cc1 (stereo not shown) [Example 4.24]	1
CCCCC(=O)NC(C)Cc1ccc(C#Cc2ccc(OCC)cc2)cc1 (stereo not shown) [Example 4.25]	0.54
CCOc1ccc(C#Cc2ccc(CC(C)NC(=O)C(F)F)cc2)cc1 (stereo not shown) [Example 4.26]	0.23
CCOc1ccc(C#Cc2ccc(CC(C)NC(=O)CNC)cc2)cc1 (stereo not shown) [Example 4.29]	2.7
CCOc1ccc(C#Cc2ccc(CC(C)NC(=O)C(O)C(C)C)cc2)cc1 (stereo not shown) [Example 4.30]	1.7
CCOc1ccc(C#Cc2ccc(CC(C)NC(=O)CF)cc2)cc1 (stereo not shown) [Example 4.31]	0.41
CCOc1ccc(C#Cc2ccc(CC(C)NC(=O)C3CNC(=O)C3)cc2)cc1 (stereo not shown) [Example 4.32]	0.44
CCOc1ccc(C#Cc2ccc(CC(C)NC(=O)C3CCOC3)cc2)cc1 (stereo not shown) [Example 4.33]	0.49
CCOc1ccc(C#Cc2ccc(CC(C)NC(=O)C3CNC3)cc2)cc1 (stereo not shown) [Example 4.34]	0.6
CCOc1ccc(C#Cc2ccc(CC(C)NC(=O)C3CC3C)cc2)cc1 (stereo not shown) [Example 4.35]	0.38
CCOc1ccc(C#Cc2ccc(CC(C)NC(=O)C3CCCO3)cc2)cc1 (stereo not shown) [Example 4.37]	0.9
CCOc1ccc(C#Cc2ccc(CC(C)NC(=O)c3cnco3)cc2)cc1 (stereo not shown) [Example 4.38]	0.17
C=CC(=O)NC(C)c1ccc(C#Cc2ccc(OCC)cc2)cc1 (stereo not shown) [Example 4.39]	0.71
CCOc1ccc(C#Cc2ccc(C(C)NC(=O)C(C)O)cc2)cc1 (stereo not shown) [Example 4.40]	3.7
CCOc1ccc(C#Cc2ccc(C(C)NC(=O)C3CC3)cc2)cc1 (stereo not shown) [Example 4.41]	2
CCOc1ccc(C#Cc2ccc(C(C)NC(=O)CCO)cc2)cc1 (stereo not shown) [Example 4.43]	11
CCOc1ccc(C#Cc2ccc(C(C)NC(=O)C3(C)CC3)cc2)cc1 (stereo not shown) [Example 4.44]	1.5
